One series relates to Caco-2 cells. Nature of the series: Caco-2 cell permeability assay. The class given is in vitro ADME. Conditions: 100 µM, AP to BL, 2 h; mean ± SD of quadruplicates. As for the experimental part: Caco-2 cells were seeded in Transwell® polycarbonate filter at a density of 8 × 10^4 cells/filter and cultured for 21 days. Culture medium was removed from both apical (AP) and basolateral (BL) chambers of transwell, and the wells were rinsed three times with PBS. AP buffer (HBSS, pH 6.5) containing 10 mM MES and BL buffer (HBSS, pH 7.4) containing 10 mM HEPES were loaded in AP (500 µL) and BL (1500 µL) chambers, respectively, followed by incubation for 30 min at 37 °C. Then, test compound (100 µM) was added to the AP side and incubated for 2 h at 37 °C. After the incubation, BL buffer was collected and analysed using an UV spectrophotometer at a maximum wavelength (wavelength 225–357 nm).
To estimate oral absorption of target compounds, their permeability in a Caco-2 monolayer was evaluated at a concentration of 100 µM (Table 1).

Another series concerns the target p38α (Homo sapiens, UniProt Q16539). Nature of the series: p38α kinase assay (33PanQinase, ATF2 as substrate). Type of series: biochemical. The settings on record: for IC50: ATF2 substrate, mean of duplicates.
In series [1] the test system is TGF-β1-induced luciferase reporter activity, HaCaT (3TP-luc) stable cells. Nature of the series: Cell-based p3TP-luciferase reporter assay. Conditions: for p3TP-luciferase activity (% control): 0.1 μM inhibitor, TGF-β1 2 ng/mL, 24 h, mean ± SD of three independent experiments; for IC50: Homo sapiens, HaCaT, read-out: IC50 for p3TP-luciferase. The protocol: To establish HaCaT (3TP-luc) stable cells, cells were seeded on six-well plates. Cells were allowed to adhere overnight and then transfected with the p3TP-luc (neo) expression plasmid using PEI reagent (Sigma Aldrich). Transfected cells were cultured for four weeks in the presence of G418 (500 µg/mL). Several single clones were isolated and measured luciferase activity. The clone showing response to TGF-β1 treatment was used for reporter assay. HaCaT (3TP-luc) stable cells were seeded at 2.5 × 10^4 cells/well in 96-well plate and were allowed to adhere overnight. Cells were concomitantly treated with TGF-β1 (2 ng/mL) and indicated concentrations of ALK5 inhibitors in 0.2% FBS medium and incubated for 24 h at 37 °C in 5% CO2. Cell lysates were prepared using Luciferase Assay System (Promega) according to the manufacturer’s instruction, and luminescence was measured by a luminometer, Micro Lumat Plus (Berthold, Germany).

The target of series [2] is T1, ALK5 (Homo sapiens, UniProt P36897).
T1 sequence (P36897 34-503): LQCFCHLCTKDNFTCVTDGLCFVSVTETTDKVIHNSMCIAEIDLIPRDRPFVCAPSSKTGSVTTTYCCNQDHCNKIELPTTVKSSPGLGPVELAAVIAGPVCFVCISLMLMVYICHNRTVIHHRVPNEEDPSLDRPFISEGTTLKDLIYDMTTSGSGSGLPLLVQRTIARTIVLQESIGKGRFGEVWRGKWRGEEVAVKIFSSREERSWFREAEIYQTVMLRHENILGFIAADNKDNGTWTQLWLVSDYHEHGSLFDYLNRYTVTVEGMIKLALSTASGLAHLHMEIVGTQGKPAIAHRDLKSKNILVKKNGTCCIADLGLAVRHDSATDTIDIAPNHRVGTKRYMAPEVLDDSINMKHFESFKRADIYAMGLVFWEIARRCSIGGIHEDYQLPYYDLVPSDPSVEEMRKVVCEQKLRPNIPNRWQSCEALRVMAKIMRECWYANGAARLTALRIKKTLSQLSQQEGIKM

Series [3] has as its system panel of 28 protein kinases. Conditions: panel of 28 protein kinases (19 serine/threonine, 9 tyrosine kinases).
Source text: Because ALK5 is a serine/threonine kinase, we chose 19 serine/threonine kinases including ALK5 and an ALK family kinase, ACV-R1 (ALK5, ACV-R1, Aurora-A, ARK5, B-Raf, CK2α1, COT, DAPK1, IRAK4, JNK3, MAPKAPK5, MST4, NEK2, NLK, PAK1, PIM1, PRK1, S6K, SGK1) and 9 tyrosine kinases (ABL1, CSK, FGF-R1, FLT3, IGF1-R, PDGFR-α, SRC, VEGF-R1, ZAP70).
For series [4], the target named is T2, purified human ALK5 kinase domain (Homo sapiens, UniProt P36897).
T2 construct: using the purified human ALK5 kinase domain produced in Sf9 insect cells; host or cells: Sf9 insect cells
T2 sequence (P36897 205-495 limits assumed): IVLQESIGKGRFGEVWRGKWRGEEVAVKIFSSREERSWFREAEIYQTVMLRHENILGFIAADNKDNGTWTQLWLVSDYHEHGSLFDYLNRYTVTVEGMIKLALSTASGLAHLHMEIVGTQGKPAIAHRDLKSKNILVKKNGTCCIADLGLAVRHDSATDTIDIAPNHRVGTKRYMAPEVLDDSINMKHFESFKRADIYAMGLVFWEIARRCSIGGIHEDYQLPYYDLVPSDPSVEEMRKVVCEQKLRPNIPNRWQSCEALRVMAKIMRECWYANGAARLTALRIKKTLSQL
The series can be described thus: ALK5 kinase assay (33PanQinase, casein as substrate). Type of series: biochemical. Conditions: for IC50: casein substrate, 1 μM ATP, singlicate (11e: mean of triplicates).
Procedure: To evaluate whether these potential inhibitors 7a–c, 11a–h, and 16a–h could inhibit ALK5, a kinase assay was performed using the purified human ALK5 kinase domain produced in Sf9 insect cells and casein as a substrate (Table 1).

For series [5] the following is noted: rats; cited from earlier work.
The subject of series [6] is ALK5. The settings on record: cited from earlier work.
Series [7] relates to ALK5. Conditions: cited from earlier work. This is another data set of the same source.

Several values for one entry are separate records, joined by “and”; a condition that tells them apart may be missing. Equal entries are not always repeated. Bounds are passed on as bounds.

Sequence of p38α (Q16539 whole entry): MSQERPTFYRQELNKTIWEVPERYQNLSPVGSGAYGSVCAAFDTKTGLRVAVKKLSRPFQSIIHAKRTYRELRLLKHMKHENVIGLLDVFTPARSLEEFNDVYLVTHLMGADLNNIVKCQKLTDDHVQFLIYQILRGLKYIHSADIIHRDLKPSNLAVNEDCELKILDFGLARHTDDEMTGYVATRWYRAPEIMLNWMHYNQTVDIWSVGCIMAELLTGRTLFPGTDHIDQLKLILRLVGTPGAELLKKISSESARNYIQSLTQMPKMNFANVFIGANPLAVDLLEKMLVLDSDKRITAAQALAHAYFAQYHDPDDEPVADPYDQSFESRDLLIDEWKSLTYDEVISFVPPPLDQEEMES

Consider `Cc1cccc(-c2[nH]c(Cc3cccc(C(N)=O)c3)nc2-c2ccc3nccnc3c2)n1` [Compound 11e, 3-((5-(6-Methylpyridin-2-yl)-4-(quinoxalin-6-yl)-1H-imidazol-2-yl)methyl)benzamide], for which, in the series with Caco-2 cells, the “Caco-2 permeability (%)” value was 56% and 56 ± 26.8%. Besides, on p38α, the “Selectivity index (IC50 for p38α/IC50 for ALK5)” value came to 22, the “fold less selective against p38α than vactosertib” value worked out at 6.2 fold, the “fold more selective against p38α than galunisertib” value was 5.5 fold and half-maximal inhibition (IC50) required 0.288 µM. Further, in series [1] (0.1 µM inhibitor), the “% inhibition in luciferase reporter assay” value is 92 % inhibition. In addition, in [1], the “p3TP-luciferase activity (% control)” value amounted to 8 ± 5.8 % control and the IC50 came to 0.0196 µM. Besides, the “fold higher potency compared to galunisertib” value at ALK5 [2] (ALK5 kinase assay) is given as 6.6 fold. On ALK5 [2] (read-out: IC50 for ALK5, GSK3 (14–27) substrate, 1 μM ATP, mean of duplicates), the IC50 worked out at 0.013 µM. Moreover, the “Selectivity indices against all the kinases tested” value in series [3] is recorded as more than 100. Moreover, in series [4], it took 0.036 µM to reach half-maximal inhibition (IC50).

For the compound `CC(C)c1cccc(-c2[nH]c(CCc3cccc(C(N)=O)c3)nc2-c2ccc3nccnc3c2)n1` [Compound 16g, 3-(2-(5-(6-Isopropylpyridin-2-yl)-4-(quinoxalin-6-yl)-1H-imidazol-2-yl)ethyl)benzamide], the “Caco-2 permeability (%)” value with Caco-2 cells is given as 0%. Further, in [1], the “p3TP-luciferase activity (% control)” value was 48 ± 41.8 % control. In addition, 0.593 µM corresponded to half-maximal inhibition in series [4] (IC50). In [4] (vs 11a, 11b, 11c, 11g respectively), the “fold more inhibiting than the respective methylene linker analogue” value was determined as 2.1 fold. In series [4] (vs 11a, 11e, 16a, 16e respectively, kinase assay), the “fold less potent than the corresponding 6-methylpyridyl analogue” value is on record as 13–35 fold.

With `CCCCc1cccc(-c2[nH]c(CCc3cccc(C(N)=O)c3)nc2-c2ccc3nccnc3c2)n1` [Compound 16h, 3-(2-(5-(6-n-Butylpyridin-2-yl)-4-(quinoxalin-6-yl)-1H-imidazol-2-yl)ethyl)benzamide], in the series on Caco-2 cells, the “Caco-2 permeability (%)” value was 0%. The “p3TP-luciferase activity (% control)” value in [1] was determined as 92 ± 10.4 % control. Also, the IC50 in series [4] is 2.88 µM.

Consider `Cc1cccc(-c2nn3c(c2-c2ccnc4ccc(C(N)=O)cc24)CCC3)n1` [Galunisertib (1), reference compound], for which the 50% inhibitory concentration (IC50) against p38α was 0.32 µM; in series [1], more than 0.1 µM.

Turning to `Cc1cccc(-c2[nH]c(CNc3ccccc3F)nc2-c2ccc3ncnn3c2)n1` [Vactosertib (2), N-((4-([1,2,4]triazolo[1,5-a]pyridin-6-yl)-5-(6-methylpyridin-2-yl)-1H-imidazol-2-yl)methyl)-2-fluoroaniline], the oral bioavailability entry in series [5] is “moderate”. For the same compound, in the series on ALK5 [6], the “ALK5 inhibitory activity in a kinase assay” value is on record as “subnanomolar”. In the series on ALK5 [7], the “ALK5 inhibitory activity in a cell-based luciferase reporter assay” value is reported as “subnanomolar”.

Source of the values: publication PMC7144182, “Synthesis, biological evaluation and molecular modelling of 2,4-disubstituted-5-(6-alkylpyridin-2-yl)-1H-imidazoles as ALK5 inhibitors” (Journal of Enzyme Inhibition and Medicinal Chemistry, 2020).
